# Measured values taken from patent US11225490B2, “Prodrugs of secondary amine compounds” (Alkermes Pharma Ireland Limited, priority 2011, dated 2022).
# Assay: Pharmacokinetic evaluation of prodrugs in rats (plasma olanzapine and prodrug after intramuscular injection)
# Format: in vivo, Male Sprague-Dawley rats
# Conditions: ([Prodrug AUClast/MWprodrug]/[OLZ AUCINF/MWOLZ])*100, IM, dose 3 mg
# Procedure: Male Sprague-Dawley rats (Charles River Laboratories, Wilmington, Mass.) 25 male Sprague-Dawley rats are obtained. Approximately 24 rats are used in each study. Rats are approximately 325-350 g at time of arrival, and are housed 2 per cage with ad libitum chow and water. Environmental conditions in the housing room are 64-76° F., 30% to 70% relative humidity, and 12:12-h light:dark cycle. All experiments are approved by the Institutional Animal Care and Use Committee.
# Prodrug compounds (Compound 56, Compound 111, and Compound 112) of the invention and corresponding parent drugs of the prodrugs are tested.
# Rats are dosed IM by means of a 25 gauge, ⅝ in. needle with 1 cc syringe. 0.3mL suspension is withdrawn from the vial containing the test compound. The rat is injected in the muscles of the hind limb after anesthesia with isoflourane. Blood samples are collected via a lateral tail vein after brief anesthesia with Isoflurane. A 27½ G needle and lcc syringe without an anticoagulant is used for the blood collection. Approximately 250 μL of whole blood is collected at each sampling time point of 1 hour, 6 hours, 24 hours and 2, 3, 6, 7, 10, 14 days after administration. Once collected, whole blood is immediately transferred to tubes containing an esterase inhibitor and anti-coagulant, inverted 10-15 times and immediately placed on ice. The tubes are centrifuged for 2 minutes at >14,000 g's (11500 RPMs using Eppendorf Centrifuge at 2-6° C. to separate plasma. Plasma samples are transferred to labeled plain tubes and stored frozen at <−70° C. The study design is shown in Table 5 and the PK results are given in Table 6.
# The Olanzapine and prodrug concentrations in plasma samples were analyzed by liquid chromatography-tandem mass spectroscopy using appropriate parameters for each compound.
# Half life, maximal concentration, and AUC are calculated using WinNonlin software, version 5.2 (Pharsight, St. Louis, Mo.). (FIGS. 1-4).
row,Relative exposure of prodrug,SMILES
1,Not detected,"CCCCCCCCCCCCCCCC(=O)OCOC(=O)N1C(N2CCN(C)CC2)=c2cc(C)sc2=Nc2ccccc21 [Compound 56, (palmitoyloxy)methyl 2-methyl-4-(4-methylpiperazin-1-yl)-5H-benzo[b]thieno[2,3-e][1,4]diazepine-5-carboxylate]"
2,<3%,"CCCCCCCCCCCCCCCCCC(=O)OCOC(=O)N1C(N2CCN(C)CC2)=c2cc(C)sc2=Nc2ccccc21 [Compound 111, (stearoyloxy)methyl 2-methyl-4-(4-methylpiperazin-1-yl)-5H-benzo[b]thieno[2,3-e][1,4]diazepine-5-carboxylate]"
3,12%,"CCCCCCCCCCCCCCCCCCCC(=O)OCOC(=O)N1C(N2CCN(C)CC2)=c2cc(C)sc2=Nc2ccccc21 [Compound 112, (icosanoyloxy)methyl 2-methyl-4-(4-methylpiperazin-1-yl)-5H-benzo[b]thieno[2,3-e][1,4]diazepine-5-carboxylate]"
